Test results reported in ChEMBL document CHEMBL4270559, “Structural insight into the optimization of ethyl 5-hydroxybenzo[g]indol-3-carboxylates and their bioisosteric analogues as 5-LO/m-PGES-1 dual inhibitors able to suppress inflammation” (Eur J Med Chem, 2018).

Legend:
[1] = molecular target: T1, Polyunsaturated fatty acid 5-lipoxygenase (Homo sapiens, UniProt P09917); assay: Inhibition of 5-LO in human peripheral blood neutrophils using arachidonic acid as substrate preincubated for 15 mins followed by substrate addition measured after 10 mins by RP-HPLC analysis
T1 sequence (P09917 whole entry): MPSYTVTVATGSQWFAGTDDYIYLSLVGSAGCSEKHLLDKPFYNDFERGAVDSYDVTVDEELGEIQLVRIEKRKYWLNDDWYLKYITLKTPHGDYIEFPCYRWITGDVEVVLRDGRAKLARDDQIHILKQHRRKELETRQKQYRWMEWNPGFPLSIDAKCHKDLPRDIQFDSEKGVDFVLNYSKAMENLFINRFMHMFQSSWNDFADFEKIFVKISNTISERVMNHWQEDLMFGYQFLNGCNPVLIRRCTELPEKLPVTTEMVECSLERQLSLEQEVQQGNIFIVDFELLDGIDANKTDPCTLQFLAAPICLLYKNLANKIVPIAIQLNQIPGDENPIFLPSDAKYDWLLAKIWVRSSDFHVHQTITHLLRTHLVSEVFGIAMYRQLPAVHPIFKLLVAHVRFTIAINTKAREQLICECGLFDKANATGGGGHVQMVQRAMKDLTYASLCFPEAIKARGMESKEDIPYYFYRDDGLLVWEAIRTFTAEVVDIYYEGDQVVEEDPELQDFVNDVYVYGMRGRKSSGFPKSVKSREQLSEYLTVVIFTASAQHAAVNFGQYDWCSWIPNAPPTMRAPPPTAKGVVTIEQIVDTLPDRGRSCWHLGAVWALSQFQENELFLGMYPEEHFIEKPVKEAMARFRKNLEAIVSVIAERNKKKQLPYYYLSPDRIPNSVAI

[2] = molecular target: T1, Polyunsaturated fatty acid 5-lipoxygenase; assay: Inhibition of recombinant human 5-LO expressed in Escherichia coli BL21 using arachidonic acid as substrate preincubated for 15 mins followed by substrate addition measured after 10 mins by RP-HPLC analysis
[3] = molecular target: T2, Prostaglandin E synthase (Homo sapiens) (UniProt O14684); assay: Inhibition of mPGES-1 in microsomal membranes isolated from IL-1beta-stimulated human A549 cells assessed as residual activity preincubated for 15 mins followed by PGH2 addition measured after 1 mins by RP-HPLC analysis relative to control; format: cell membranes
T2 sequence (whole entry): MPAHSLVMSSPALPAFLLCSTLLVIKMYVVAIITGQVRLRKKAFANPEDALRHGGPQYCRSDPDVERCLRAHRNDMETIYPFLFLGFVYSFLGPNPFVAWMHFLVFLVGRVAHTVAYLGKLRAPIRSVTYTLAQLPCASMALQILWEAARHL

Prostaglandin E synthase = molecular target: T3, Prostaglandin E synthase (Homo sapiens, UniProt O14684); assay: Inhibition of mPGES-1 in microsomal membranes isolated from IL-1beta-stimulated human A549 cells preincubated for 15 mins followed by PGH2 addition measured after 1 mins by RP-HPLC analysis; format: cell membranes
T3 sequence (O14684 whole entry): T2 sequence (whole entry)

Mus musculus [4] = assay: Anti-inflammatory activity in carrageenan-induced ICR mouse model of inflammation assessed as reduction in paw edema at 4 mg/kg, ip administered 30 mins prior to carrageenan challenge measured at 4 hrs post carrageenan challenge by plethysmometric method relative to control; format: functional; parameters: scale not given: the % may be the effect or the level left
Mus musculus [5] = assay: Anti-inflammatory activity in carrageenan-induced ICR mouse model of inflammation assessed as reduction in paw edema at 4 mg/kg, ip administered 30 mins prior to carrageenan challenge measured at 2 to 6 hrs post carrageenan challenge by plethysmometric method relative to control; format: functional; parameters: scale not given: the % may be the effect or the level left
Mus musculus [6] = assay: Anti-inflammatory activity in carrageenan-induced ICR mouse model of inflammation assessed as reduction in paw edema at 20 mg/kg, ip administered 30 mins prior to carrageenan challenge measured at 2 to 6 hrs post carrageenan challenge by plethysmometric method relative to control; format: functional; parameters: scale not given: the % may be the effect or the level left

Row | Structure (SMILES) | IC50 [1] [µM] | IC50 [2] [µM] | Activity [3] [%] | IC50 (Prostaglandin E synthase) [µM] | Activity (Mus musculus [4]) [%] | Activity (Mus musculus [5]) [%] | Activity (Mus musculus [6]) [%]
1 | CCOC(=O)c1c(-c2ccccc2OC)oc2c1cc(O)c1ccccc12 | 1.36 | 0.22 | – | – | – | – | –
2 | CCOC(=O)c1c(Cc2c(Cl)cccc2Cl)[nH]c2c1cc(O)c1ccccc12 | 1.16 | 0.782 | 78.1 | – | – | – | –
3 | CCOC(=O)c1c(-c2ccc(Br)cc2F)[nH]c2c1cc(O)c1ccccc12 | 0.86 | 0.27 | – | 3.43 | 69.35 | – | –
4 | CCOC(=O)c1c(C)[nH]c2c1cc(O)c1ccccc12 | 0.42 | 0.48 | – | – | – | – | –
5 | CCOC(=O)c1c(Cc2ccccc2Cl)[nH]c2c1cc(O)c1ccccc12 | – | – | – | 0.96 | – | – | –
6 | CCOC(=O)c1c(-c2cccc(Br)c2)[nH]c2c1cc(O)c1ccccc12 | 0.21 | 0.13 | – | 1.19 | – | – | –
7 | CCOC(=O)c1c(-c2ccc(Cl)cc2)oc2c1cc(O)c1ccccc12 | 3.74 | 0.13 | – | – | – | – | –
8 | CCOC(=O)c1c(-c2cc(C)cc(C)c2)[nH]c2c1cc(O)c1ccccc12 | 0.3 | 0.12 | – | 7.06 | – | – | –
9 | CCOC(=O)c1c(-c2ccc(Cl)c(Cl)c2)oc2c1cc(O)c1ccccc12 | 1.24 | 1.7 | – | – | – | – | –
10 | CCOC(=O)c1c(Cc2ccc(Cl)c(Cl)c2)[nH]c2c1cc(O)c1ccccc12 | 0.045 | 0.054 | – | 4.2 | – | 73 | –
11 | CCOC(=O)c1c(-c2cccc(C)c2)[nH]c2c1cc(O)c1ccccc12 | 0.12 | 0.14 | – | 2.56 | – | – | –
12 | CCOC(=O)c1c(-c2ccccc2F)oc2c1cc(O)c1ccccc12 | 0.67 | 0.37 | – | – | – | – | –
13 | CCOC(=O)c1c(-c2ccccc2Cl)oc2c1cc(O)c1ccccc12 | 1.86 | 0.37 | – | – | – | – | –
14 | CCOC(=O)c1c(-c2cccc(Cl)c2)oc2c1cc(O)c1ccccc12 | 3.92 | 0.46 | – | – | – | – | –
15 | CCOC(=O)c1c(-c2cc(Br)ccc2F)[nH]c2c1cc(O)c1ccccc12 | 0.23 | 0.11 | – | 2.13 | 73.95 | – | –
16 | CCOC(=O)c1c(-c2ccc(Cl)cc2)[nH]c2c1cc(O)c1ccccc12 | – | – | – | 3.4 | – | – | –
17 | CCOC(=O)c1c(-c2ccccc2C)[nH]c2c1cc(O)c1ccccc12 | 0.42 | 0.11 | – | 12.7 | – | – | –
18 | CCOC(=O)c1c(-c2ccc(Br)cc2F)oc2c1cc(O)c1ccccc12 | 2.32 | 1.06 | – | – | – | – | –
19 | CCOC(=O)c1c(Cc2c(C)cc(C)cc2C)[nH]c2c1cc(O)c1ccccc12 | 0.13 | 0.298 | – | 58.8 | – | – | –
20 | CCOC(=O)c1c(-c2ccccc2Br)oc2c1cc(O)c1ccccc12 | 0.79 | 0.16 | – | – | – | – | –
21 | CC(c1cc2ccccc2s1)N(O)C(N)=O (centres undefined) [ZILEUTON] | – | – | – | – | – | – | 38.2
22 | CCOC(=O)c1c(-c2ccccc2Br)[nH]c2c1cc(O)c1ccccc12 | 0.2 | 0.16 | – | 2.54 | – | – | –
23 | CCOC(=O)c1c(-c2cccc(Br)c2)oc2c1cc(O)c1ccccc12 | 1.64 | 0.86 | – | – | – | – | –
24 | CCOC(=O)c1c(-c2ccccc2Cl)[nH]c2c1cc(O)c1ccccc12 | 0.24 | 0.13 | – | – | – | – | –
25 | CCOC(=O)c1c(Cc2c(F)cccc2F)[nH]c2c1cc(O)c1ccccc12 | 0.094 | 0.169 | – | 4.2 | – | 81 | –
26 | CCOC(=O)c1c(-c2ccc(Cl)c(Cl)c2)[nH]c2c1cc(O)c1ccccc12 | 0.13 | 0.13 | – | 0.48 | 47.3 | – | –
27 | CCOC(=O)c1c(-c2ccccc2OC)[nH]c2c1cc(O)c1ccccc12 | 0.21 | 0.19 | – | 8.6 | – | – | –
28 | CCOC(=O)c1c(-c2ccccc2F)[nH]c2c1cc(O)c1ccccc12 | 0.15 | 0.1 | 50.6 | – | – | – | –
29 | CCOC(=O)c1c(-c2cc(Br)ccc2F)oc2c1cc(O)c1ccccc12 | 4.49 | 2.03 | – | – | – | – | –
